99 compounds from ChEMBL document CHEMBL3507680, “University of Dundee, Gates Library screen for HepG2 cell viability” can be followed below.

The data set is described as follows: Human HepG2 cell viability assay in 384 well format. Type of data set: toxicity, cell-based. Also noted: dose 125 nL, time 70.5 hour; concentration not given beside the values. As to conditions: HepG2 cells, read-out: Inhibition.
`C[S+]([O-])c1nncn1CC(=O)c1ccc(OC(F)F)cc1` (centres undefined): the cytotoxicity at 70.5 h was -2.01%.

In the case of `CCN(C)c1ncnc2c1CCN(Cc1ccc(OC)cc1)CC2`, the cytotoxicity at 70.5 h is -2.63%.

On to `COC(=O)COn1c(SC)nc2ccccc2c1=O`, for which the cytotoxicity at 70.5 h was -9.2%.

Take `CCN(Cc1ccc(F)c(F)c1)Cc1nc2c(cnn2C)c(=O)[nH]1`: the cytotoxicity at 70.5 h was -4.48%.

In the case of `CCC1CN(C(=O)Nc2cnc3c(cnn3C(C)C)c2)CCO1` (centres undefined), the cytotoxicity at 70.5 h was 1.85%.

`CS(=O)(=O)NCc1ccc(C(=O)NCc2ccc3c(c2)CCC3)o1`: the cytotoxicity at 70.5 h was -7.15%.

Consider `Cc1ncc2c(n1)CCCC2NC(=O)c1cnn(Cc2ccccc2)c1` (centres undefined), for which the cytotoxicity at 70.5 h is -12.8%.

As for `CC(=O)Nc1ccc2c(c1)nc1n2[C@@H](CNCc2ccccc2)COC1`, the cytotoxicity at 70.5 h is -11.7%.

For `Cc1cc(C2CCCN2C(=O)NCc2c(C)cc(C)[nH]c2=O)on1` (centres undefined), the cytotoxicity at 70.5 h was -7.29%.

Take `COCC1CN(c2ncc(F)cn2)Cc2cnn(C)c21` (centres undefined): the cytotoxicity at 70.5 h is -4.56%.

Consider `Cc1nc(C(C)C)sc1C(=O)N(C)CCCc1cnn(C)c1`, for which the cytotoxicity at 70.5 h is -7.28%.

On to `Cc1nn(C2CCS(=O)(=O)C2)c(O)c1Cc1ccc(Br)cc1` (centres undefined), for which the cytotoxicity at 70.5 h is 19.3%.

As for `COCCNC(=O)c1ccccc1-n1cc(CN)cn1`, the cytotoxicity at 70.5 h is -1.19%.

As to `COCCOc1cccc(C(=O)N2CCCCC2c2nccs2)c1` (centres undefined), the cytotoxicity at 70.5 h was -3.68%.

Turning to `Cc1noc(C)c1C(=O)N(C)Cc1nc(-c2ccccn2)no1`, the cytotoxicity at 70.5 h is -1.56%.

For the compound `O=C1CCCN1CCN1CCCCC1Cn1cncn1` (centres undefined), the cytotoxicity at 70.5 h turned out to be 17.7%.

With `Cc1ccc(CN2CCc3onc(C(=O)Nc4cccnc4)c3C2)o1`, the cytotoxicity at 70.5 h is -7.97%.

Consider `CC(=O)Nc1ccc2c(c1)CN(C(=O)c1ccco1)CC2`, for which the cytotoxicity at 70.5 h was 18.4%.

Turning to `CN(C)C(=O)[C@H]1CC[C@@H]2[C@@H](CCN2C(=O)N(C)C)O1`, the cytotoxicity at 70.5 h was found to be 1.41%.

As for `COc1ccc(-c2ccccc2CN)c(OC)c1`, the cytotoxicity at 70.5 h is 21.8%.

Take `CN1CCOC(CNCc2coc(-c3cccs3)n2)C1` (centres undefined): the cytotoxicity at 70.5 h was found to be 27.5%.

With `CN(C)C(CNc1c(NCc2ccco2)c(=O)c1=O)c1ccccc1` (centres undefined), the cytotoxicity at 70.5 h is -8.7%.

In the case of `CC(C)Cc1noc(CN2CCCN(C(=O)c3cccc(Cl)c3)CC2)n1`, the cytotoxicity at 70.5 h worked out at 23.3%.

Regarding `O=S1(=O)C[C@@H]2[C@H](C1)N(Cc1ncc[nH]1)CCN2CC1CC1`, the cytotoxicity at 70.5 h was -5.56%.

Turning to `COc1c(CNCc2cccnc2OC(C)C)c(C(C)C)nn1C`, the cytotoxicity at 70.5 h is -8.38%.

Turning to `Cn1ccc(C(=O)Nc2nc(-c3ccc4c(c3)CCO4)cs2)cc1=O`, the cytotoxicity at 70.5 h was -6.04%.

Turning to `CC(=O)N1CCC(n2ccc(-c3cnc(NCC(C)C)nc3)n2)CC1`, the cytotoxicity at 70.5 h was -5.12%.

Regarding `O=C(CN1CC(n2cccn2)C1)NCCCc1ccccc1`, the cytotoxicity at 70.5 h is -8.01%.

As to `Cc1nc(CNC(=O)CC2C(=O)NCCN2Cc2ccccc2C)n[nH]1` (centres undefined), the cytotoxicity at 70.5 h was -0.629%.

On to `Cc1[nH]c2ccc(CNc3cc(C#N)ccn3)cc2c1C`, for which the cytotoxicity at 70.5 h is -4.75%.

For `CCn1cc2c(n1)C(COCC1CC1)CN(C(=O)c1cnoc1C)C2` (centres undefined), the cytotoxicity at 70.5 h is -12.8%.

As for `O=C1CCCc2[nH]c(=O)c(C(=O)N(CC3CCCCC3)C3CC3)cc21`, the cytotoxicity at 70.5 h was -7.98%.

`COCCC(=O)N1CCC(c2noc3nc(C)cc(C(F)(F)F)c23)CC1`: the cytotoxicity at 70.5 h was -4.96%.

As for `Cc1ncc(C(=O)N2C[C@H]3CC[C@@H]2CN(S(=O)(=O)N(C)C)C3)c(C)n1`, the cytotoxicity at 70.5 h is -11.5%.

Regarding `CCN(Cc1ccccc1)S(=O)(=O)C1CCS(=O)(=O)CC1`, the cytotoxicity at 70.5 h was -10.9%.

As to `O=C(Cn1ncc2ccccc21)Nc1ccnn1CC1CCOC1` (centres undefined), the cytotoxicity at 70.5 h is -23.1%.

As to `Cc1ccc(NC2CCN(C(=O)CCc3nccs3)CC2)nn1`, the cytotoxicity at 70.5 h was -12.3%.

As to `Cc1cc(C(F)(F)F)nn1CC(C)C(=O)Nc1ccncc1` (centres undefined), the cytotoxicity at 70.5 h worked out at 1.22%.

Regarding `CC(O)CCn1ccc2[nH]c(=O)c(C#N)cc2c1=O` (centres undefined), the cytotoxicity at 70.5 h stood at 4.38%.

`Cc1cc(C)n(C2CCCN(C(=O)c3ccc4c(c3)COC4)C2)n1` (centres undefined): the cytotoxicity at 70.5 h came out at 1.09%.

Take `Cn1nc(CC(C)(C)C)cc1NC(=O)c1ccc(CNC(N)=O)cc1`: the cytotoxicity at 70.5 h is -7.81%.

As for `Cc1ccc2c(c1)CN(CC(=O)NCCc1ccc(F)cc1)CC(C)O2` (centres undefined), the cytotoxicity at 70.5 h is -7.54%.

Take `Cc1ccc(-c2cn[nH]c2C2CCCN(c3nccc(N)n3)C2)cc1` (centres undefined): the cytotoxicity at 70.5 h was -1.62%.

As for `CCOc1nnc(CN(Cc2ccccc2)CC(O)c2ccco2)s1` (centres undefined), the cytotoxicity at 70.5 h is -10.6%.

Take `Cc1cnc(CCNC(=O)C2CCN(S(=O)(=O)c3ccc(F)cc3)C2)s1` (centres undefined): the cytotoxicity at 70.5 h is 17.8%.

Turning to `CC(C)c1nc(CN2CCOC(CNc3cccnn3)C2)cs1` (centres undefined), the cytotoxicity at 70.5 h is -8.93%.

For `CN(Cc1nc(N)c2ccccc2n1)C1CCCN(c2cccnn2)C1` (centres undefined), the cytotoxicity at 70.5 h is -5.77%.

For the compound `CCS(=O)(=O)N1CCN(Cc2ccncc2)c2nc(C)ccc2C1`, the cytotoxicity at 70.5 h is -5.64%.

With `O=C(Cn1cccn1)N1CCC(c2nnc(-c3ccsc3)o2)CC1`, the cytotoxicity at 70.5 h is -4.75%.

For `COc1ccc(CN2CCC(C(N)=O)CC2)cc1SC(F)(F)F`, the cytotoxicity at 70.5 h came out at 5.97%.

Take `CCc1cc(CNC(=O)N2CCC(Cc3cnn(C)c3)C2)on1` (centres undefined): the cytotoxicity at 70.5 h was -4.1%.

As to `Cc1cc(CN(C)C(=O)NC(C)c2nncn2C)no1` (centres undefined), the cytotoxicity at 70.5 h is -5.64%.

With `CO[C@H]1CCN(c2nnc(C)s2)C[C@@H]1Cc1ccccc1`, the cytotoxicity at 70.5 h was -4.37%.

On to `CCOCCCn1c(NC(=O)c2cnc(C)s2)nc2ccccc21`, for which the cytotoxicity at 70.5 h is 4.48%.

For `Cc1ccc(N2CCCC3(CCN(C(=O)C4CC4)C3)C2)nn1` (centres undefined), the cytotoxicity at 70.5 h is -3.58%.

In the case of `CS(=O)(=O)CCC(=O)NC(c1ccc(F)cc1)C(F)(F)F` (centres undefined), the cytotoxicity at 70.5 h is -1.59%.

For the compound `Cc1ccc(-c2nc(CN3CCN(C(=O)C4CC4)CC3)cs2)o1`, the cytotoxicity at 70.5 h is -5.72%.

On to `CCn1cc(CN2CCCN(C(=O)c3ccoc3)CC2)cn1`, for which the cytotoxicity at 70.5 h was determined as 9.04%.

Consider `CN(C)C(=O)c1cncnc1-c1ccc(CNC(=O)C2CC2)cc1`, for which the cytotoxicity at 70.5 h was -11.4%.

As to `O=C(CC(F)(F)F)N1CCc2[nH]nc(-c3ccc4c(c3)OCO4)c2C1`, the cytotoxicity at 70.5 h came to 7.4%.

`O=C(NCCNc1ncccn1)C1CC(=O)N(Cc2ccco2)C1` (centres undefined): the cytotoxicity at 70.5 h is -4.28%.

For `Cc1cc(CSc2ccccn2)on1`, the cytotoxicity at 70.5 h is -3.89%.

As to `O=C(O)C1(Cc2ccc(Cl)cc2)CCN(c2ncccc2F)CC1`, the cytotoxicity at 70.5 h is -4.45%.

On to `O=C1CC(NS(=O)(=O)c2ccc(Br)cc2)CN1` (centres undefined), for which the cytotoxicity at 70.5 h is -4.25%.

As to `CNC(=O)CN(C)C1CCN(c2ccc(Cl)cc2)CC1`, the cytotoxicity at 70.5 h was found to be 2.05%.

As for `CCn1nc2c(cc1=O)CN(Cc1coc(-c3ccccc3)n1)CC2`, the cytotoxicity at 70.5 h is -3.27%.

With `CCc1nc(C2CCCN(C(=O)c3ccc4[nH]nnc4c3)C2)no1` (centres undefined), the cytotoxicity at 70.5 h was -11%.

On to `Cc1ccc(CN2C[C@H]3OC(=O)N(Cc4ccccn4)[C@H]3C2)o1`, for which the cytotoxicity at 70.5 h amounted to 2.3%.

Regarding `CC(NC(=O)C1=NN(C)C(=O)CC1)c1ccc(Cl)cc1Cl` (centres undefined), the cytotoxicity at 70.5 h was -3.67%.

In the case of `CC(C)N(C)Cc1cnc2n1CCN(Cc1ccco1)C2`, the cytotoxicity at 70.5 h was -14%.

`CCN(Cc1ccco1)C(=O)c1cc(OC)c2c(c1)OCCO2`: the cytotoxicity at 70.5 h is 5.2%.

Take `CCC(CC)S(=O)(=O)NC(=O)c1ccc2c(c1)ncn2C`: the cytotoxicity at 70.5 h is -0.423%.

For `Cc1csc(NC(=O)CN2CCC(c3ccnn3CCO)CC2)n1`, the cytotoxicity at 70.5 h amounted to 33.6%.

As to `COCC1CN(C(=O)c2cccn2C)Cc2nccn2C1` (centres undefined), the cytotoxicity at 70.5 h was -18.2%.

Consider `CC(C)C1CN(C(=O)Nc2cnn(CC(F)F)c2)CCO1` (centres undefined), for which the cytotoxicity at 70.5 h was -4.6%.

In the case of `CCn1cc(N2Cc3nc(N4CCCC4)ncc3C2=O)cn1`, the cytotoxicity at 70.5 h stood at 0.0553%.

`CC(C)CN1C(=O)C2(CCN(Cc3ccsc3)C2)c2ccccc21` (centres undefined): the cytotoxicity at 70.5 h was -13%.

With `CN(Cc1ccsc1)C(=O)Nc1cccnc1N1CCCC1`, the cytotoxicity at 70.5 h came out at 23%.

On to `O=C(C1CC1)N1C[C@@H](F)[C@@H](OCc2nc3ccccc3[nH]2)C1`, for which the cytotoxicity at 70.5 h is 4.35%.

For the compound `CC(C)(C)C(=O)NCCc1ccn(-c2ccccc2)n1`, the cytotoxicity at 70.5 h is -17.1%.

As for `c1cc2n(n1)CC(CNCc1ccc(OC3CCCCC3)nc1)CN2` (centres undefined), the cytotoxicity at 70.5 h was determined as 0.985%.

Take `Cn1c(CN2CCC(O)CC2)nnc1C1CCCN(C(=O)C2CNC2)C1` (centres undefined): the cytotoxicity at 70.5 h was -5.47%.

Consider `CC(C)N1CCOCC2(CN(Cc3cccs3)CCO2)C1` (centres undefined), for which the cytotoxicity at 70.5 h is -0.496%.

For `CCN1CC(CN(C)Cc2nc(-c3ccc(C)o3)oc2C)CC1=O` (centres undefined), the cytotoxicity at 70.5 h was -6.14%.

As to `COCCCNC(=O)CN(C)C(=O)c1cc(C)ccc1N(C)C(C)C`, the cytotoxicity at 70.5 h was -3.7%.

`COC(=O)C(NC(=O)CCc1ccco1)c1cc(F)ccc1F` (centres undefined): the cytotoxicity at 70.5 h was -7.98%.

Turning to `O=C(Cn1ccc2c(Cl)cccc21)N1CCC2(CC1)OCCO2`, the cytotoxicity at 70.5 h was -4.3%.

In the case of `O=C(NCCN1CCCCC1)c1nc2ccccc2c(=O)[nH]1`, the cytotoxicity at 70.5 h turned out to be 4.35%.

`CC(C)NC(=O)N1CCC2(CC1)CN(C(=O)NC(C)C)CCO2`: the cytotoxicity at 70.5 h is -10.3%.

For `COCCS(=O)(=O)NCc1ccc(N(C)C)c(C)c1`, the cytotoxicity at 70.5 h was -7.82%.

As to `CCOc1ccc(CC(=O)Nc2cnccc2SCCCO)cc1`, the cytotoxicity at 70.5 h was -6.43%.

As for `O=C(c1coc(-c2ccccc2)n1)N1CCS(=O)(=O)CC1`, the cytotoxicity at 70.5 h was -3.26%.

`CCN(C)CC(=O)N1CCC(c2cc(N3CCOCC3)nc(C)n2)CC1`: the cytotoxicity at 70.5 h was -11.5%.

`Cc1nnc(N2C[C@H](OCCCn3cccn3)[C@H]3OCCC[C@H]32)s1`: the cytotoxicity at 70.5 h was -2.53%.

With `Cc1noc(C)c1CN1CCO[C@H]2CN(Cc3cccc(F)c3)C[C@H]21`, the cytotoxicity at 70.5 h is -13.7%.

With `CN(C)CCn1nc(C2CCN(Cc3ccccc3)C2)c2cccnc21` (centres undefined), the cytotoxicity at 70.5 h came out at 31.8%.

For the compound `O=C(C1CCOC1)N1CCN(CC(F)(F)F)c2ccccc21` (centres undefined), the cytotoxicity at 70.5 h was -5.62%.

On to `Cc1ccccc1CSc1nc(N)cc(N2CCOCC(CO)C2)n1` (centres undefined), for which the cytotoxicity at 70.5 h was 6.16%.

Consider `Cc1noc(CN2CCCC2c2noc(C3CC3)n2)n1` (centres undefined), for which the cytotoxicity at 70.5 h stood at 20.7%.
